The numbers were not newly measured in paper PMC8472830, “Inclusion of Medium-Chain Triglyceride in Lipid-Based Formulation of Cannabidiol Facilitates Micellar Solubilization In Vitro, but In Vivo Performance Remains Superior with Pure Sesame Oil Vehicle” (Pharmaceutics, 2021), which cites them from elsewhere.

Details of data set [1]: method as in PMID 12412831. The conditions noted are these: pH 7.4.
On the set-up of data set [2]: method as in PMID 29109461, PMID 27648135. The conditions noted are these: rats, oral, natural sesame oil vehicle.
Details of data set [3]: method as in PMID 32634571. To be noted: healthy male volunteers.

With `C=C(C)[C@@H]1CCC(C)=C[C@H]1c1c(O)cc(CCCCC)cc1O` [CBD, Cannabidiol], the clogD7.4 in data set [1] is 6.53. In data set [2], the “Drug concentration in lymph fluid compared to plasma” value is 250 fold and the “Increase of systemic bioavailability of CBD compared to the lipid-free vehicle” value is recorded as 2.8 fold. The “Increase of CBD oral absorption in sesame oil compared to CBD powder” value in data set [3] was “eight-fold”.
